Measured values published in ChEMBL document CHEMBL4842341, “Discovery of IACS-9779 and IACS-70465 as Potent Inhibitors Targeting Indoleamine 2,3-Dioxygenase 1 (IDO1) Apoenzyme” (J Med Chem, 2021).

Key:
in vivo [1] = settings: CD1, mouse, iv, 0.3 mg/kg
in vitro [2] = settings: human, liver microsomes
in vivo [3] = settings: CD1, mouse, iv, 0.3 mg/kg; remark: listed apart in the source
in vivo [4] = settings: CD1, mouse, po, 10 mg/kg
in vivo [5] = settings: CD1, mouse, iv, 0.3 mg/kg; remark: listed apart in the source
in vivo [6] = settings: CD1, mouse, iv, 0.3 mg/kg; remark: listed apart in the source
in vivo [7] = settings: CD1, mouse, po, 10 mg/kg; remark: listed apart in the source
in vitro [8] = settings: rat, liver microsomes
in vivo [9] = settings: NSG, mouse, tumor, po, 125 mg/kg
in vivo [10] = settings: NSG, mouse, plasma, po, 125 mg/kg
[11] = Apparent permeability across basolateral side to apical side in MDCK cells; format: ADME, cell-based, Canis lupus familiaris; settings: dog
[12] = Apparent permeability across basolateral side to apical side in MDCK-MDR1 cells; format: ADME, cell-based, Canis lupus familiaris; settings: dog
[13] = Apparent permeability across apical side to basolateral side in wild type MDCK cells; format: ADME, cell-based, Canis lupus familiaris; settings: dog
[14] = Half life in mouse plasma; format: ADME, cell-free
[15] = Apparent permeability across apical side to basolateral side in MDCK-MDR1 cells; format: ADME, cell-based, Canis lupus familiaris; settings: dog
in vivo [16] = settings: NSG, mouse, tumor, po, 125 mg/kg; remark: listed apart in the source
in vivo [17] = settings: NSG, mouse, plasma, po, 125 mg/kg; remark: listed apart in the source
in vivo [18] = settings: CD-1, mouse, iv, 0.3 mg/kg
[19] = Drug concentration in plasma of NSG mouse xenografted with human SKOV3 cells at 200 mg/kg, po BID measured after 12 hrs by LC-MS analysis; format: ADME, organism-based, SK-OV-3
in vivo [20] = settings: CD-1, mouse, po, 10 mg/kg
in vivo [21] = settings: NSG, mouse, plasma, po, 125 mg/kg; remark: listed apart in the source
in vivo [22] = settings: CD-1, mouse, iv, 0.3 mg/kg; remark: listed apart in the source
[23] = Drug concentration in tumor of NSG mouse xenografted with human SKOV3 cells at 200 mg/kg, po BID measured after 12 hrs by LC-MS analysis; format: ADME, organism-based, Neoplasm, SK-OV-3; settings: read-out: Drug uptake
in vivo [24] = settings: CD-1, mouse, iv, 0.3 mg/kg; remark: listed apart in the source
in vivo [25] = settings: NSG, mouse, tumor, po, 125 mg/kg; remark: listed apart in the source
in vivo [26] = settings: CD-1, mouse, iv, 0.3 mg/kg; remark: listed apart in the source
in vivo [27] = settings: CD-1, mouse, po, 10 mg/kg; remark: listed apart in the source

CCC(NC(=O)c1ccc(Cl)cc1)[C@H]1[C@@H]2C[C@@H](n3cc(C4CC4)nn3)C[C@@H]21 (stereo not given in full)
Vd (in vivo [1]): 1.04 L/kg | CLint scaled at 0.75 h, 1 µM (in vitro [2]): 6.5 mL/min/kg | half-life (in vivo [3]): 2.7 h | Cmax (in vivo [4]): 1500 nM | AUC(0-inf) (in vivo [5]): 2.8 µM·h | clearance (in vivo [6]): 4.67 mL/min/kg | bioavailability (in vivo [7]): 22%

CCC(NC(=O)c1ccc(Cl)cc1)[C@H]1[C@@H]2C[C@@H](n3cnc4ccncc43)C[C@@H]21 (stereo not given in full)
CLint scaled at 0.75 h, 1 µM (in vitro [2]): 8.8 mL/min/kg

CCC(NC(=O)c1ccc(Cl)cc1)[C@H]1[C@@H]2C[C@@H](n3cnc4ccc(F)cc43)C[C@@H]21 (stereo not given in full)
CLint scaled at 0.75 h, 1 µM (in vitro [2]): 11.8 mL/min/kg

CCC(NC(=O)c1ccc(Cl)cc1)[C@@H]1[C@@H]2C[C@H](Oc3ccnc4cc(F)ccc34)C[C@@H]21 (stereo not given in full)
CLint scaled at 0.75 h, 1 µM (in vitro [2]): 32 mL/min/kg

O=C(C[C@H]1CC[C@@H](Oc2ccnc3ccccc23)CC1)Nc1ccc(Cl)cc1
CLint scaled at 0.75 h, 1 µM (in vitro [2]): 44 mL/min/kg | CLint scaled at 0.75 h, 1 µM (in vitro [8]): 455 mL/min/kg

O=C(Nc1ccc(Cl)cc1)C1CC12CCC(Oc1ccnc3ccccc13)CC2 (stereo not given)
CLint scaled at 0.75 h, 1 µM (in vitro [2]): 171 mL/min/kg | CLint scaled at 0.75 h, 1 µM (in vitro [8]): 137 mL/min/kg

CC[C@@H](NC(=O)c1ccc(Cl)c(F)c1)[C@H]1[C@@H]2C[C@@H](n3cnc4cc(F)c(F)cc43)C[C@@H]21
concentration at 120 h (in vivo [9]): 11000 nM | concentration at 120 h (in vivo [10]): 4100 nM

CCC(NC(=O)c1ccc(Cl)cc1)[C@@H]1[C@@H]2C[C@H](Oc3ccnc4ccncc34)C[C@@H]21 (stereo not given in full)
CLint scaled at 0.75 h, 1 µM (in vitro [2]): 54 mL/min/kg

O=C(C[C@H]1CC[C@@H](c2ccccc2)CC1)Nc1ccc(Cl)cc1
CLint scaled at 0.75 h, 1 µM (in vitro [2]): 681 mL/min/kg | CLint scaled at 0.75 h, 1 µM (in vitro [8]): 884 mL/min/kg

CCC(NC(=O)c1ccc(Cl)cc1)[C@@H]1[C@@H]2C[C@@H](Oc3ccnc4ccccc34)C[C@@H]21 (stereo not given in full)
Papp B→A [11]: 1.73 ×10⁻⁶ cm/s | Papp B→A [12]: 1.4 ×10⁻⁶ cm/s | CLint scaled at 0.75 h, 1 µM (in vitro [2]): 23 mL/min/kg | Papp A→B [13]: 3.63 ×10⁻⁶ cm/s | half-life [14]: 12.8 h | CLint scaled at 0.75 h, 1 µM (in vitro [8]): 14 mL/min/kg | Papp A→B [15]: 1.86 ×10⁻⁶ cm/s

O=C(NC[C@@H]1[C@H]2C[C@@H](Oc3ccnc4ccc(F)cc34)C[C@@H]12)c1ccc(Cl)cc1
CLint scaled at 0.75 h, 1 µM (in vitro [2]): 38 mL/min/kg

Fc1cc2ncn([C@H]3C[C@@H]4[C@@H](CNC(c5ccc(Cl)cc5)C(F)(F)F)[C@@H]4C3)c2cc1F (stereo not given in full)
CLint scaled at 0.75 h, 1 µM (in vitro [2]): 100 mL/min/kg

CCC(NC(=O)c1ccc(Cl)cc1)[C@@H]1[C@@H]2C[C@H](Oc3ccnc4cccnc34)C[C@@H]21 (stereo not given in full)
CLint scaled at 0.75 h, 1 µM (in vitro [2]): 14 mL/min/kg

O=C(NC[C@H]1[C@H]2C[C@@H](Oc3ccnc4ccc(F)cc34)C[C@@H]12)c1ccc(Cl)cc1
CLint scaled at 0.75 h, 1 µM (in vitro [2]): 39 mL/min/kg

CCC(NC(=O)c1ccc(Cl)cc1)[C@@H]1[C@@H]2C[C@H](Oc3ccnc4ccc(F)cc34)C[C@@H]21 (stereo not given in full)
Vd (in vivo [1]): 0.27 L/kg | half-life (in vivo [3]): 15 h | Cmax (in vivo [4]): 51000 nM | AUC(0-inf) (in vivo [5]): 51 µM·h | clearance (in vivo [6]): 0.233 mL/min/kg | bioavailability (in vivo [7]): 146%

CC(C(=O)Nc1ccc(Cl)cc1)N1CC(COc2ccnc3ccccc23)C1 (stereo not given)
CLint scaled at 0.75 h, 1 µM (in vitro [2]): 227 mL/min/kg | CLint scaled at 0.75 h, 1 µM (in vitro [8]): 526 mL/min/kg

CC[C@@H](NC(=O)c1ccc(Cl)cc1)[C@H]1[C@@H]2C[C@@H](n3cnc4ccc(F)cc43)C[C@@H]21 (stereo in doubt; 56)
concentration at 120 h (in vivo [16]): 2300 nM | concentration at 120 h (in vivo [17]): 600 nM

NS(=O)(=O)NCCNc1nonc1C(=NO)Nc1ccc(F)c(Br)c1 [EPACADOSTAT]
half-life at 24 h (in vivo [18]): 1.6 h | concentration at 12 h [19]: 690 nM | Cmax at 24 h (in vivo [20]): 2000 nM | concentration at 120 h (in vivo [21]): 100 nM | AUC(0-inf) at 24 h (in vivo [22]): 0.21 µM·h | concentration at 12 h [23]: 5000 nM | clearance at 24 h (in vivo [24]): 53.3 mL/min/kg | concentration at 120 h (in vivo [25]): 3200 nM | Vd at 24 h (in vivo [26]): 7.5 L/kg | CLint scaled at 0.75 h, 1 µM (in vitro [8]): 32 mL/min/kg | bioavailability at 24 h (in vivo [27]): 50%

O[C@H](C[C@H]1c2c(F)cccc2-c2cncn21)[C@H]1CC[C@H](O)CC1 [NAVOXIMOD]
CLint scaled at 0.75 h, 1 µM (in vitro [2]): 11 mL/min/kg | CLint scaled at 0.75 h, 1 µM (in vitro [8]): 39 mL/min/kg

O=C1CC(c2c[nH]c3ccc(F)cc23)C(=O)N1 (stereo not given) [PF-06840003]
CLint scaled at 0.75 h, 1 µM (in vitro [2]): 2.9 mL/min/kg | CLint scaled at 0.75 h, 1 µM (in vitro [8]): 7.2 mL/min/kg
